In patent US20040167111A1, “Pharmaceutical preparations for treating side effects during and/or after GnRHa therapy” (priority 1998, published 2004):

Experiments:
[1] = tested on: test subjects with fibroid tumors of the uterus; experiment: Clinical study in women with fibroid tumors of the uterus under GnRHa therapy; assay type: in vivo, human
Procedure: (§1) The effectiveness of injected Decapeptyl-Depot (Ferring Arzneimittel GmbH, Kiel, Germany) in a dose of 3.2 mg of Triptorelin intramuscularly at intervals of four weeks and 1 to 2 mg of 14α,15α-methylene-1,3,5(10),8-tetraene-3,17α-diol daily, given in the form of a vaginal suppository of 1 mg of 14α,15α-methylene-1,3,5(10),8-tetraene-3,17α-diol each, was tested in fourteen female test subjects aged 22 to 38, who were being treated with Decapeptyl-Depot for endometriosis for at least six months.
Test subjects aged 22 to 46 with fibroid tumors of the uterus were given the same doses.

[2] = tested on: seminal vesicles of male rats; experiment: Model study in male rats: moisture content of the seminal vesicles after 21 days; assay type: in vivo
Procedure: (§2) A model study was performed in which both 17β-estradiol and 14α,15α-methylene-1,3,5(10),8-tetraene-3,17α-diol were administered to male rats. The purpose of this study was to compare the extent of the undersirable side effects produced in males (in this case male rats as a model) that are produced by administration of an estrogen, namely 17β-estradiol, and by 14α, 15α-methylene-1,3,5(10),8-tetraene-3,17α-diol, an effective ingredient of the present invention.
(§3) Respective amounts of 17β-estradiol and 14α,15α-methylene-1,3,5(10),8-tetraene-3,17α-diol equivalent to 0.04 mg/kg body weight were administered over a 21 day period to the male rats in corresponding groups of male rats. These amounts were administered daily over the 21 day period to individual male rats subcutaneously. Eight male rats were in each group.
(§4) The moisture content in the prostate and seminal vesicles of each tested male rat was measured at the end of the 21 day test period. The experimental error estimate is shown with the “T” at the top of each bar in the respective bar graphs.

[3] = tested on: males with prostate-Ca under GnRHa therapy; experiment: Observation in males with prostate-Ca under GnRHa therapy; assay type: in vivo, human
[4] = tested on: female test subjects treated with Decapeptyl-Depot for endometriosis; experiment: Clinical study in women with endometriosis under GnRHa therapy (Decapeptyl-Depot); assay type: in vivo, human
[5] = tested on: female test subjects treated with Decapeptyl-Depot for endometriosis; experiment: as above; assay type: in vivo, human; remark: listed apart in the source
Procedure: Here clinical studies in women with endometriosis are reported.
as §1
The treatment with 14α,15α-methylene-1,3,5(10),8-tetraene-3,17α-diol was begun four weeks after the beginning of GnRHa therapy, that is, at the time of the second Decapeptyl injection.
Hot flashes were recorded by the subjects daily on a control form laid out for a 24-hour day, beginning with the first day of Decapeptyl therapy.
The mean number of hot flashes per 24 hours in weeks 3 and 4 of the GnRHa treatment (that is, before the beginning of the 14α,15α-methylene-1,3,5(10),8-tetraene-3,17α-diol therapy) was assumed to be 100%, for the sake of better comparability. The number of hot flashes during additional therapy with 14α,15α-methylene-1,3,5(10),8-tetraene-3,17α-diol was indicated as a percentage of the starting value. For five subjects, a measurement of skin temperature over 24 hours was done, for the sake of objectivity.
At intervals of four weeks, immediately prior to the injection of Decapeptyl-Depot, blood was drawn to determine LI-I, FSH, prolactin, testosterone, DHEAS, SHBG, free testosterone, estradiol, and progesterone. Blood specimens were also taken for determining a simple blood count, SGOT, SGPT, creatinine, Na, K, Ca, albumin, glucose and CA 125.
For long-term treatment, bone density was monitored at intervals of 6 to 12 months. In seven subjects, trials of withdrawal from 14α,15α-methylene-1,3,5(10),8-tetraene-3,17α-diol over 4 to 8 weeks each were done.

prostate of male rats = experiment: Model study in male rats: moisture content of the prostate after 21 days; assay type: in vivo
Procedure: as §2, §3, §4

C[C@]12CCC3=C(CCc4cc(O)ccc43)[C@@]13C[C@H]3C[C@H]2O [14α,15α-methylene-1,3,5(10),8-tetraene-3,17α-diol]
course of the decrease in uterine volume versus subjects not receiving the compound ([1]; Decapeptyl-Depot plus add-on): identical
influence on the effect of the GnRHa therapy on the lower organs ([1]; supplementary treatment): did not influence
uterus size ([1]; within three months, Decapeptyl-Depot plus add-on): 40±10 % of the starting value
proliferation effect on the seminal vesicles (increase in the moisture content) ([2]; male rats, 0.04 mg/kg body weight subcutaneously daily over 21 days, FIG. 2): no profileration effect
hot flashes tripped by GnRHa therapy [3]: same result
complaints of undesirable estrogen-related side effects ([4]; all subjects): complaint-free
hot flashes tripped by GnRHa therapy ([4]; treated females, endometriosis or fibroid tumors of the uterus): effectively eliminated
bleeding ([5]; 1 to 2 mg daily as vaginal suppository in addition to Decapeptyl-Depot): No bleeding occurred
values for LH, FSH, prolactin, testosterone, DHEAS, SHBG, estradiol, and progesterone ([5]; 1 to 2 mg daily vaginal suppository in addition to Decapeptyl-Depot): remained low and unchanged
Ca 125 values ([5]; add-on to Decapeptyl-Depot): did not rise
body weight ([5]; add-on to Decapeptyl-Depot): no change
intracyclic bleeding ([5]; add-on to Decapeptyl-Depot): No intracyclic bleeding occurred
liver values, blood count or electrolytes ([5]; add-on to Decapeptyl-Depot): No changes
endometriosis-specific complaints ([5]; during the treatment): did not recur
bone density ([5]; over one year, four subjects monitored): did not change significantly
blood pressure ([5]; subjects with borderline RR (n=4, RR around 140/80)): around 110/70
hot flashes in withdrawal trial ([5]; withdrawal over 4 to 8 weeks, seven subjects): increase in hot flashes, within three weeks back to the starting values
proliferation effect in the prostates (increase in the moisture content) (prostate of male rats; male rats, 0.04 mg/kg body weight subcutaneously daily over 21 days, FIG. 1): scarcely any proliferation effect
undesirable estrogen side effects (prostate of male rats; male rats, prostate and seminal vesicles, 0.04 mg/kg s.c. daily 21 days): no undesirable estrogen side effects

C[C@]12CC[C@@H]3c4ccc(O)cc4CC[C@H]3[C@@H]1CC[C@@H]2O [estradiol, 17β-estradiol, reference compound]
proliferation effect on the seminal vesicles (increase in the moisture content) ([2]; rat, in vivo, sc, 0.04 mg/kg): comparatively large proliferation effect
proliferation effect in the prostates (increase in the moisture content) (prostate of male rats; rat, in vivo, sc, 0.04 mg/kg): comparatively large proliferation effect
undesirable estrogen side effects (prostate of male rats; rat, in vivo, sc, 0.04 mg/kg): estrogen side effects of course result
